Target: T1, RIPK1 (Homo sapiens, UniProt Q13546)
T1 construct: intracellular RIPK1 and its phosphorylation during the process of inducing programmed necrosis of HT29 cells; endogenous in cells; host or cells: HT29 cells
T1 sequence (Q13546 1-671): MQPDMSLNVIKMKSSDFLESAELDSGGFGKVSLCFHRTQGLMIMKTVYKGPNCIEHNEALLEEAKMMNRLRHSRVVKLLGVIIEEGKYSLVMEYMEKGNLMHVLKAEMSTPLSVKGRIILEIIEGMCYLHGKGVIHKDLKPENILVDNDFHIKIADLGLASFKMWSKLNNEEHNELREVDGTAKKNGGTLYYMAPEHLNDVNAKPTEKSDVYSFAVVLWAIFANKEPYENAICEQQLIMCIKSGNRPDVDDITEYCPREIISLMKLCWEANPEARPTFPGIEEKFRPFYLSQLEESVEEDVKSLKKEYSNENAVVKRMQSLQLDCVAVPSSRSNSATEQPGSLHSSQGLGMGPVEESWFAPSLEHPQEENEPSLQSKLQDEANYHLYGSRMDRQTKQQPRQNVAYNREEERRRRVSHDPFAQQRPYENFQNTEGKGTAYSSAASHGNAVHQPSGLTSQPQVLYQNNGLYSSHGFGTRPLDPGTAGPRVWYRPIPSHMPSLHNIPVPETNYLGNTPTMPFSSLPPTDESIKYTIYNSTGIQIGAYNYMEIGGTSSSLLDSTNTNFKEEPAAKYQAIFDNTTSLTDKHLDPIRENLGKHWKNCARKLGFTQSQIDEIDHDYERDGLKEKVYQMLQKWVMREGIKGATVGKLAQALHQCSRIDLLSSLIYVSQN
Test: Western Blot detection of inhibition of RIPK1 phosphorylation in HT29 cells
Format: cell-based
Conditions: Z-VAD-FMK/TNF-α/AT-406 induction, 7 hours
Description: In this assay, Western blot was used to detect the effect of the test compound on intracellular RIPK1 and its phosphorylation during the process of inducing programmed necrosis of HT29 cells to verify the inhibitory effect of the compound on RIPK1 phosphorylation.
a) HT29 cells in good condition were collected, resuspended in McCoy's 5A complete medium and counted. The cells were seeded in a 12-well plate at a cell density of 1×10 6/1 mL/well, and placed in a 37° C. cell culture incubator overnight.
b) Z-VAD-FMK (at final concentration of 20 μM) was added to the above 12-well plate. After 30 minutes, the inducer (where the final concentration of TNF-α was 20 ng/mL, and the final concentration of AT-406 was 100 nM), and the test compound of different concentrations was then added, and incubated in a cell incubator at 37° C. for 7 hours.
c) Preparation of complete lysate: A tube of aliquoted RIPA lysate was thawed, and then phosphatase inhibitor and Roche protease inhibitor were added respectively (phosphatase inhibitor: RIPA=1:100; Roche protease inhibitor: RIPA=4:100); the mixture was placed on ice for later use; […]
g) The BCA kit was used for detection and the protein concentration was calculated; […]
7. […] The membrane was cut according to the molecular weight of the protein to be detected based on the marker band indication. […]

## O=C(C1CCN(c2cc(-c3cc(OCCCO)ccc3F)ccn2)CC1)N1N=CC[C@H]1c1cc(F)cc(F)c1 (racemic) [Example 40]
  effect on RIPK1 total protein: no obvious inhibitory effect on RIPK1
  inhibition of RIPK1 phosphorylation (Western Blot, ratio to total RIPK1): directly inhibits the phosphorylation activity of RIPK1 and shows a dose-dependent relationship

— patent US20250074892A1, “CARBONYL BRIDGED HETEROCYCLIC COMPOUND, AND COMPOSITION AND APPLICATION THEREOF” (BEIJING SCITECH-MQ PHARMACEUTICALS LIMITED, priority 2022, published 2025)
